Results as given in US9193736B2, “PDE 10a inhibitors for the treatment of type II diabetes” (Janssen Pharmaceutica, NV, priority 2013, dated 2015).
Where a name gives a salt, the structure may show the parent alone. Residues, ends and D or L forms follow the SMILES beside them. *: point of attachment. X1 = O=C(c1ccc(-c2c(C#Cc3ccc4ccccc4n3)nc3c(N4CCOCC4)ccnn23)cc1)*

Key:
[1] = biological target: Rat recombinant PDE10a (rPDE10a) (Rattus norvegicus (Rat), UniProt Q9QYJ6); experiment: In vitro assay PDE10a: rat recombinant PDE10a SPA with 3H-cAMP substrate, IC50; assay type: biochemical; settings: 60 nM cAMP, read-out: rPDE10a2 IC50
Rat recombinant PDE10a (rPDE10a), sequence (Q9QYJ6 whole entry): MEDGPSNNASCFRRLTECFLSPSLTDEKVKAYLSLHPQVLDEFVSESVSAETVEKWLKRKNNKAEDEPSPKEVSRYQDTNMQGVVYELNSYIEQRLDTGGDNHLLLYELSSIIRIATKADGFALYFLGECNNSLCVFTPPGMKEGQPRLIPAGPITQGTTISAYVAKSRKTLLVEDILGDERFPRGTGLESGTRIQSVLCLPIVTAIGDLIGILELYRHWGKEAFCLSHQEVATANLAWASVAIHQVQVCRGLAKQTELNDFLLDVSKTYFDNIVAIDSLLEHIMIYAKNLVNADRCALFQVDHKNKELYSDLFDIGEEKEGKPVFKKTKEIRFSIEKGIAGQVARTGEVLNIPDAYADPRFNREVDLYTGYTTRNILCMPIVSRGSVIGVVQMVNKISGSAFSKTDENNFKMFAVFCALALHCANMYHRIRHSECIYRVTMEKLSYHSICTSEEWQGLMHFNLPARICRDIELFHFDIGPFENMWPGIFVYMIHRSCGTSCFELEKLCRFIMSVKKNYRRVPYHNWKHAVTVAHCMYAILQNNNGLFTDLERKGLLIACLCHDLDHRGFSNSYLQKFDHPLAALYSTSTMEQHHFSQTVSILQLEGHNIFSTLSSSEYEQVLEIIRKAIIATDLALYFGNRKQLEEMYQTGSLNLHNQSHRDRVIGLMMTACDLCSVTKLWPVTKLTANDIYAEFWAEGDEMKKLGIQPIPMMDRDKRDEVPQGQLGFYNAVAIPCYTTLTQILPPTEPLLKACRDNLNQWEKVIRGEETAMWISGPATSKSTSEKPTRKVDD
Method: In Vitro Assay PDE10a Rat recombinant PDE10a (rPDE10a) was expressed in Sf9 cells using a recombinant rPDE10a baculovirus construct. Cells were harvested after 48 h of infection and the rPDE10a protein was purified by metal chelate chromatography on Ni-sepharose 6FF. Tested compounds were dissolved and diluted in 100% DMSO to a concentration 100 fold of the final concentration in the assay. […] The reaction was incubated for 60 min at rt. After incubation, the reaction was stopped with 20 μL of 17.8 mg/mL PDE SPA beads. […] For blank values the enzyme was omitted from the reaction and replaced by incubation buffer.

[2] = biological target: Human recombinant PDE10A2 (Homo sapiens (Human), UniProt Q9Y233); experiment: In vitro hPDE10a: human recombinant PDE10A2 scintillation proximity assay, IC50; assay type: biochemical; settings: human recombinant PDE10A2, SPA, 60 nM cAMP; read-out: hPDE10a2 IC50
Human recombinant PDE10A2, sequence (Q9Y233 267-1055): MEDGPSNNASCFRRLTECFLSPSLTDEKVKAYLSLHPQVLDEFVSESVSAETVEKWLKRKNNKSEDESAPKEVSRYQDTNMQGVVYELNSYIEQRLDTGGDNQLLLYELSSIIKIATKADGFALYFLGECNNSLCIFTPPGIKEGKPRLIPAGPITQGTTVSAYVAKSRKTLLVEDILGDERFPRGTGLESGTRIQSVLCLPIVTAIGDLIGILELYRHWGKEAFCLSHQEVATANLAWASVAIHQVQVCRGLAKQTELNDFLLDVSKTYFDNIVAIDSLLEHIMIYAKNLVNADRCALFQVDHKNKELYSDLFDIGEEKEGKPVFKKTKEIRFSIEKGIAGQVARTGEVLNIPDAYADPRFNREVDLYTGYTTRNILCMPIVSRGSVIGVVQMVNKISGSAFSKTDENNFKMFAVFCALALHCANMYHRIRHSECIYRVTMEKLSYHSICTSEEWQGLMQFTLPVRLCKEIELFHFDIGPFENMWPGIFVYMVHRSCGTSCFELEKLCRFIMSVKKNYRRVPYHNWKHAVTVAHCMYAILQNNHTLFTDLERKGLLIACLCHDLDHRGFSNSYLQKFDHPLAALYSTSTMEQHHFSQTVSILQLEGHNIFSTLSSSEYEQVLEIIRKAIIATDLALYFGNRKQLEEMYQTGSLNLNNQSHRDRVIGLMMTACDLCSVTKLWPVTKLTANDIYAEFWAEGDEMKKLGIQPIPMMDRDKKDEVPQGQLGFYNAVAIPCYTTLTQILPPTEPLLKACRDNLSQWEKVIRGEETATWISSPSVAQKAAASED
Method: Cells were harvested and the phosphodiesterase protein was purified by metal chelate chromatography on Ni-sepharose 6FF. The affinity of the compounds of Formula (I) for phophodiesterases (PDE) was measured by a scintillation proximity assay (SPA). PDE Yttrium Silicate SPA beads allow PDE activity to be measured by direct binding of the primary phosphate groups of non-cyclic AMP or GMP to the beads via a complex iron chelation mechanism. The amount of bound tritiated product ([^3H]-AMP) is measured by liquid scintillation counting. The compounds were dissolved and diluted in 100% DMSO in polystyrene plates to a concentration of 100-fold the final concentration in the assay. […] After incubation, the reaction was stopped with 20 μL of stop solution, consisting of PDE SPA beads (17.8 mg beads/mL in 18 mM zinc sulphate). […] To measure the low control, no enzyme was added to the reaction mixture. Data were calculated as the percentage of inhibition of total activity measured in the absence of test compound (% control). […] For compounds tested more than once, the data points were aggregated.

SMILES	IC50 [1]	IC50 [2]
c1ccc2ncc(OCCc3nc4c(N5CCOCC5)ccnn4c3-c3ccc(N4CCNCC4)nc3)cc2c1 [Cpd 14, 4-(3-(6-(Piperazin-1-yl)pyridin-3-yl)-2-(2-(quinolin-3-yloxy)ethyl)imidazo[1,2-b]pyridazin-8-yl)morpholine trifluoroacetic acid salt]	776 nM	955 nM
O=S(=O)(Cc1nc2c(N3CCOCC3)ccnn2c1-c1ccc(N2CCNCC2)nc1)c1ccc2ccccc2n1 [Cpd 9, 4-(3-(6-(piperazin-1-yl)pyridin-3-yl)-2-((quinolin-2-ylsulfonyl)methyl)imidazo[1,2-b]pyridazin-8-yl)morpholine trifluoroacetic acid salt]	132 nM	427 nM
c1ccc2nc(SCc3nc4c(N5CCOCC5)ccnn4c3-c3ccc(-c4nnn[nH]4)nc3)ccc2c1 [Cpd 32, 4-(3-(6-(1H-Tetrazol-5-yl)pyridin-3-yl)-2-((quinolin-2-ylthio)methyl)imidazo[1,2-b]pyridazin-8-yl)morpholine trifluoroacetic acid salt]	1 nM	2 nM
COc1cccc(/C=C/c2nc3c(N4CCOCC4)ccnn3c2-c2ccc(C(=O)O)cc2)n1 [Cpd 133, 4-{2-[(E)-2-(6-Methoxypyridin-2-yl)ethenyl]-8-morpholin-4-ylimidazo[1,2-b]pyridazin-3-yl}benzoic acid]	70 nM	62 nM
O=C(O)CC1(c2ccc(-c3c([C@H]4C[C@H](c5ccc6ccccc6n5)C4)nc4c(N5CCOCC5)ccnn34)cc2)COC1 [Cpd 174, 2-(3-(4-(8-Morpholino-2-((1R,3R)-3-(quinolin-2-yl)cyclobutyl)imidazo[1,2-b]pyridazin-3-yl)phenyl)oxetan-3-yl)acetic acid]	–	1 nM
O=C(O)C1CCN(c2ccc(-c3c([C@H]4C[C@@H](c5ccc6ccccc6n5)C4)nc4c(N5CCOCC5)ccnn34)cc2)CC1 [compound 166, 1-(4-(8-Morpholino-2-((1s,3s)-3-(quinolin-2-yl)cyclobutyl)imidazo[1,2-b]pyridazin-3-yl)phenyl)piperidine-4-carboxylic acid]	–	93 nM
NCC(=O)N[C@@H](CCCCNC(=O)c1ccc(-c2c(C#Cc3ccc4ccccc4n3)nc3c(N4CCOCC4)ccnn23)cc1)C(N)=O [Cpd 181, (S)—N-(6-amino-5-(2-aminoacetamido)-6-oxohexyl)-4-(8-morpholino-2-(quinolin-2-ylethynyl)imidazo[1,2-b]pyridazin-3-yl)benzamide]	–	6 nM
O=C(O)c1ccc(-c2c([C@H]3C[C@H](c4ccc5ccccc5n4)C3)nc3c(N4CCOCC4)cc(Cl)nn23)cc1 [compound 160, 4-(6-Chloro-8-morpholino-2-((1r,3r)-3-(quinolin-2-yl)cyclobutyl)imidazo[1,2-b]pyridazin-3-yl)benzoic acid trifluoroacetic acid salt]	–	1 nM
Cn1nc(-c2ccc(-c3c(/C=C/c4ccc5ccccc5n4)nc4c(N5CCOCC5)ccnn34)cc2F)[nH]c1=O [Cpd 163, (E)-5-(2-Fluoro-4-(8-morpholino-2-(2-(quinolin-2-yl)vinyl)imidazo[1,2-b]pyridazin-3-yl)phenyl)-2-methyl-2H-1,2,4-triazol-3(4H)-one]	–	12 nM
c1ccc2nc(C3CC3c3cn4nccc(N5CCOCC5)c4n3)ccc2c1 (stereo not shown) [Cpd 161, 2-[2-(8-Morpholin-4-ylimidazo[1,2-b]pyridazin-2-yl)cyclopropyl]quinoline]	–	4 nM
O=C(O)c1ccc(-c2c(/C=C/c3ccc4c(n3)CCCC4)nc3c(N4CCOCC4)ccnn23)cn1 [Cpd 107, (E)-5-(8-morpholino-2-(2-(5,6,7,8-tetrahydroquinolin-2-yl)vinyl)imidazo[1,2-b]pyridazin-3-yl)picolinic acid trifluoroacetic acid salt]	–	12 nM

Continued by falling IC50 [2], values first:

IC50 [1]	IC50 [2]	SMILES
17 nM	19 nM	O=C(O)c1ccc(-c2c(/C=C/c3nc4ccccc4s3)nc3c(N4CCOCC4)ccnn23)cc1 [Cpd 90, (E)-4-(2-(2-(Benzo[d]thiazol-2-yl)vinyl)-8-morpholinoimidazo[1,2-b]pyridazin-3-yl)benzoic acid]
–	13 nM	O=C(O)c1ccc(-c2c([C@H]3C[C@@H](c4ccc5ccccc5n4)C3)nc3c(N4CCOCC4)ccnn23)cc1 [compound 167, 4-(8-Morpholino-2-((1s,3s)-3-(quinolin-2-yl)cyclobutyl)imidazo[1,2-b]pyridazin-3-yl)benzoic acid trifluoroacetic acid salt]
–	12 nM	O=C(O)c1ccc(-c2c([C@@H]3C[C@@H]3c3ccc4ccccc4n3)nc3c(N4CCOCC4)cc(Cl)nn23)cc1F [Cpd 165, 4-(6-Chloro-8-morpholino-2-((1R,2S)-2-(quinolin-2-yl)cyclopropyl)imidazo[1,2-b]pyridazin-3-yl)-2-fluorobenzoic acid trifluoroacetic acid salt]
–	11 nM	CC(C)C[C@H](NC(=O)[C@H](C)N)C(=O)N[C@@H](C)C(=O)N[C@@H](CCCCNC(=O)c1ccc(-c2c(C#Cc3ccc4ccccc4n3)nc3c(N4CCOCC4)ccnn23)cc1)C(N)=O [Cpd 178, N—((S)-6-amino-5-((S)-2-((S)-2-((S)-2-aminopropanamido)-4-methylpentanamido)propanamido)-6-oxohexyl)-4-(8-morpholino-2-(quinolin-2-ylethynyl)imidazo[1,2-b]pyridazin-3-yl)benzamide] (H-ALAK(X1)-NH2)
–	9 nM	O=c1[nH]nc(-c2ccc(-c3c(/C=C/c4ccc5ccccc5n4)nc4c(N5CCOCC5)ccnn34)cc2F)[nH]1 [Cpd 162, (E)-5-(2-Fluoro-4-(8-morpholino-2-(2-(quinolin-2-yl)vinyl)imidazo[1,2-b]pyridazin-3-yl)phenyl)-2H-1,2,4-triazol-3(4H)-one]
–	9 nM	CC(=O)c1ccc(-c2c(C#Cc3ccc4ccccc4n3)nc3c(N4CCOCC4)ccnn23)cc1 [Cpd 159, 1-(4-(8-Morpholino-2-(quinolin-2-ylethynyl)imidazo[1,2-b]pyridazin-3-yl)phenyl)ethanone]
–	5 nM	NC(=O)[C@@H](N)CCCCNC(=O)c1ccc(-c2c(C#Cc3ccc4ccccc4n3)nc3c(N4CCOCC4)ccnn23)cc1 [Cpd 180, (S)—N-(5,6-diamino-6-oxohexyl)-4-(8-morpholino-2-(quinolin-2-ylethynyl)imidazo[1,2-b]pyridazin-3-yl)benzamide]
–	5 nM	C[C@H](N)C(=O)N[C@@H](CCCCNC(=O)c1ccc(-c2c(C#Cc3ccc4ccccc4n3)nc3c(N4CCOCC4)ccnn23)cc1)C(N)=O [Cpd 179, N—((S)-6-amino-5-((S)-2-aminopropanamido)-6-oxohexyl)-4-(8-morpholino-2-(quinolin-2-ylethynyl)imidazo[1,2-b]pyridazin-3-yl)benzamide]
–	5 nM	O=c1ncn(-c2ccc(-c3c(/C=C/c4ccc5ccccc5n4)nc4c(N5CCOCC5)ccnn34)cc2F)[nH]1 [Cpd 158, (E)-1-(2-Fluoro-4-(8-morpholino-2-(2-(quinolin-2-yl)vinyl)imidazo[1,2-b]pyridazin-3-yl)phenyl)-1,2-dihydro-1,2,4-triazol-3-one]
3 nM	3 nM	O=C(O)c1ccc(-c2c(/C=C/c3ccc4ccccc4n3)nc3c(N4CCOCC4)ccnn23)cc1O [compound 63, (E)-2-Hydroxy-4-(8-morpholino-2-(2-(quinolin-2-yl)vinyl)imidazo[1,2-b]pyridazin-3-yl)benzoic acid]
4 nM	3 nM	CS(=O)(=O)NC(=O)C1CCN(c2c(/C=C/c3ccc4ccccc4n3)nc3c(N4CCOCC4)ccnn23)CC1 [compound 153, (E)-N-(Methylsulfonyl)-1-(8-morpholino-2-(2-(quinolin-2-yl)vinyl)imidazo[1,2-b]pyridazin-3-yl)piperidine-4-carboxamide]
8 nM	3 nM	CS(=O)(=O)NC(=O)c1cccc2nc(/C=C/c3cn4nc(Cl)cc(N5CCOCC5)c4n3)ccc12 [Cpd 104, 2-[(E)-2-(6-Chloro-8-morpholin-4-ylimidazo[1,2-b]pyridazin-2-yl)ethenyl]-N-(methylsulfonyl)quinoline-5-carboxamide]
–	2 nM	CC(C)(C(=O)O)c1ccc(-c2c([C@H]3C[C@H](c4ccc5ccccc5n4)C3)nc3c(N4CCOCC4)ccnn23)cc1 [Cpd 171, 2-Methyl-2-(4-(8-morpholino-2-((1R,3R)-3-(quinolin-2-yl)cyclobutyl)imidazo[1,2-b]pyridazin-3-yl)phenyl)propanoic acid]
–	1 nM	CC(C)(CC(=O)O)c1ccc(-c2c([C@H]3C[C@H](c4ccc5ccccc5n4)C3)nc3c(N4CCOCC4)ccnn23)cc1 [Cpd 172, 3-Methyl-3-{4-[8-morpholin-4-yl-2-(trans-3-quinolin-2-ylcyclobutyl)imidazo[1,2-b]pyridazin-3-yl]phenyl}butanoic acid]
–	1 nM	O=C(O)[C@H]1C[C@@H]1c1ccc(-c2c([C@H]3C[C@H](c4ccc5ccccc5n4)C3)nc3c(N4CCOCC4)ccnn23)cc1 [Cpd 170, (1R,2S)-2-(4-(8-Morpholino-2-((1R,3S)-3-(quinolin-2-yl)cyclobutyl)imidazo[1,2-b]pyridazin-3-yl)phenyl)cyclopropanecarboxylic acid]
